Experimental data as given in US20100087406A1, “INDUCTION OF INNATE IMMUNITY BY VITAMIN D3 AND ITS ANALOGS” (CEDARS-SINAI MEDICAL CENTER, priority 2004, published 2010).
Entries after “also recorded” stand apart in the source; their conditions may differ. Where two headings read alike, the source gives them in different places.

What was measured:
CAMP [1] = test: Induction of CAMP mRNA in keratinocyte cell line HaCat (QRT-PCR); type: cell-based, human
Excerpt: The X-axis represents (CAMP(ng)/18S(ng)), +/−SD.

CRAMP [2] = test: CRAMP in cultured bone marrow cells of C/EBPε-deficient or wild type mice (QRT-PCR); type: cell-based
Experimental: Primers against murine CAMP/CRAMP (forward, SEQ ID NO.: 7 and reverse, SEQ ID NO.: 8) (Table 3) were used at 200 nM per reaction.
The relative fold change between samples was determined using data normalized for 18S expression. Samples were analyzed in triplicate.

HNP3 (α-defensin) = test: Induction of primary granule gene HNP3 in U937 cells (RT-PCR); settings: U937, 1×10^−7 M, 24 h
CAMP [3] = test: Induction of CAMP mRNA expression in NB4 cells (Northern blot)
LTF (lactoferrin) = test: Induction of secondary granule gene LTF in U937 cells (RT-PCR); settings: U937, 1×10^−7 M, 24 h
CD11b [4] = test: Differentiation marker CD11b mRNA in U937 cells (Northern blot); settings: for macrophage-like differentiation (induction of CD11b): U937, 1,25[OH]2D3 1×10^−7 M or TPA 5 ng/ml, 1, 3 or 5 days
Excerpt: Total RNA at each time point was isolated and electrophoresed, then transferred to a charged membrane for Northern analysis.
Total RNA was extracted and analyzed by Northern blot.

CAMP [5] = test: Induction of CAMP mRNA expression in U937 cells (QRT-PCR, RT-PCR, Northern blot); type: cell-based, human; settings: for induction of CAMP (hCAP18) mRNA expression by Vitamin D3 analogs: U937, 1×10^−7 M, 12 and 24 hours
CAMP [6] = test: Induction of CAMP mRNA expression in HL60 cells (Northern blot)
hCAP18 = settings: colon epithelial cell lines; cited from earlier work
CD11b [7] = test: Differentiation marker CD11b mRNA in HL60 cells (Northern blot); type: cell-based, human; settings: HL-60; 1,25[OH]2D3 1×10^−7 M or TPA 5 ng/ml; 1, 3 or 5 days
CRAMP [8] = test: CRAMP expression in bone marrow of treated BNX mice (Northern blot); settings: intraperitoneal, 0.05 μg/mouse every two days for 6 weeks
CAMP [9] = settings: cultured keratinocytes or composite keratinocyte grafts; cited from earlier work
CAMP [10] = settings: primary human keratinocytes; cited from earlier work
[11] = U937, initial screen, 24 h, QRT-PCR and Northern blot

C=C1/C(=C\C=C2/CCC[C@]3(C)[C@@H]([C@H](C)CCCC(C)(C)O)CC[C@@H]23)C[C@@H](O)C[C@@H]1O [1,25(OH)2D3, 1,25-dihydroxyvitamin D3]
induction of CAMP mRNA compared with myeloid cells (CAMP [1]): not as robust as that observed in the myeloid cells; also recorded: less striking | induction of CAMP mRNA (CAMP [1]; 1×10^−7 M, 24 hours, QRT-PCR): Induction of CAMP mRNA was observed | induction of CRAMP (CRAMP [2]; C/EBPε-deficient or wild type bone marrow cells cultured in vitro, 24 h): CRAMP induction was not observed | decrease of CRAMP (CRAMP [2]; bone marrow cells, 24 h post-treatment (FIG. 14B)): approximately 2 fold | induction of HNP3 (HNP3 (α-defensin)): No induction of these genes was observed | induction of CAMP expression (CAMP [3]; NB4, 1×10^−6 M to 1×10^−9 M, 24 h, Northern blot (FIG. 3)): induction was observed; also recorded: induced expression of CAMP was observed | induction of CAMP expression (CAMP [3]; NB4, 1×10^−6 M to 1×10^−9 M, 24 h, Northern blot (FIG. 3), listed as Vitamin D3): Moderate induction | induction of LTF (LTF (lactoferrin)): No induction of these genes was observed | time of induction of the differentiation marker CD11b (CD11b [4]; U937, 1×10^−7 M, time course 1-24 hours): 12 h | macrophage-like differentiation (induction of CD11b) (CD11b [4]): promoted macrophage-like differentiation

CC1=C(/C=C/C(C)=C/C=C/C(C)=C/C(=O)O)C(C)(C)CCC1 [ATRA, all trans retinoic acid]
induction of CAMP expression (CAMP [5]; U937, 5×10^−7 M, 1-5 days): No induction was observed | induction of CAMP expression (CAMP [5]; [11]): only 1,25(OH)2D3 induced CAMP expression significantly | induction of CAMP expression (CAMP [3]; NB4, 5×10^−7 M, 1-5 days): No induction was observed | induction of CAMP expression (CAMP [6]; HL60, 5×10^−7 M, 1-5 days): No induction was observed

C[C@@H]1C[C@@H]([C@H](O)CC2CC(=O)NC(=O)C2)C(=O)[C@@H](C)C1 [CHX, cyclohexamide]
induction of CAMP gene expression by CHX alone (CAMP [5]; U937, data not shown): did not induce CAMP gene expression

C[C@]12CCC(=O)C[C@@H]1CC[C@@H]1[C@@H]2CC[C@]2(C)[C@@H](O)CC[C@@H]12 [DHT, dihydrotestosterone]
induction of CAMP expression (CAMP [5]): only 1,25(OH)2D3 induced CAMP expression significantly

C=C1/C(=C\C=C2/CCC[C@]3(C)[C@@H]([C@H](C)/C=C/C=C/C(O)(CC)CC)CC[C@@H]23)C[C@@H](O)C[C@@H]1O [EB1089, 1,25-dihydroxy-22,24-diene, 24,26,27-trihomo]
induction of CAMP (hCAP18) mRNA expression by Vitamin D3 analogs (CAMP [5]; Northern blot): strongly induced CAMP gene expression | induction of CAMP (hCAP18) mRNA expression by Vitamin D3 analogs (CAMP [5]; Northern blot, listed as EB 1089): Induction of hCAP18 mRNA expression was observed; also recorded: Induction of CAMP mRNA expression was observed

C=C1/C(=C\C=C2/CCC[C@]3(C)[C@@H]([C@@H](C)OCCCC(O)(CC)CC)CC[C@@H]23)C[C@@H](O)C[C@@H]1O [KH1060, 20-epi-22oxa-24a,26a,27a-tri-homo-1,25(OH)2D3]
induction of CAMP (hCAP18) mRNA expression by Vitamin D3 analogs (CAMP [5]; Northern blot): strongly induced CAMP gene expression; also recorded: Induction of hCAP18 mRNA expression was observed; also recorded: Induction of CAMP mRNA expression was observed

CCCCCCCCCCCCCC(=O)O[C@@H]1[C@@H](C)[C@@]2(O)[C@@H](C=C(CO)C[C@]3(O)C(=O)C(C)=C[C@@H]23)[C@@H]2C(C)(C)[C@]12OC(C)=O [PMA]
induction of hCAP18 expression (hCAP18): not by pro-inflammatory mediators

CCCCCCCCCCCCCC(=O)O[C@@H]1[C@@H](C)[C@@]2(O)[C@@H](C=C(CO)C[C@]3(O)C(=O)C(C)=C[C@@H]23)[C@@H]2C(C)(C)[C@]12OC(C)=O [TPA]
induction of CAMP expression (CAMP [5]; [11]): only 1,25(OH)2D3 induced CAMP expression significantly | induction of CAMP mRNA (CAMP [5]; U937, 1,25[OH]2D3 1×10^−7 M or TPA 5 ng/ml, 1, 3 or 5 days, Northern blot): not TPA | macrophage-like differentiation (induction of CD11b) (CD11b [7]): promoted macrophage-like differentiation | induction of CAMP mRNA (CAMP [6]; HL-60, 1,25[OH]2D3 1×10^−7 M or TPA 5 ng/ml, 1, 3 or 5 days, Northern blot): not TPA | macrophage-like differentiation (induction of CD11b) (CD11b [4]): promoted macrophage-like differentiation

C=C1/C(=C\C=C2/CCC[C@]3(C)[C@@H]([C@H](C)/C=C/C[C@@](C)(O)CO)CC[C@@H]23)C[C@@H](O)C[C@@H]1O [compound I, 1,25R,26-(OH)3-22-ene-D3]
induction of CAMP (hCAP18) mRNA expression by Vitamin D3 analogs (CAMP [5]; Northern blot): strongly induced CAMP gene expression; also recorded: Induction of hCAP18 mRNA expression was observed; also recorded: Induction of CAMP mRNA expression was observed | CRAMP expression in bone marrow compared with a vehicle-treated mouse (CRAMP [8]): did not significantly alter CRAMP expression

GM-CSF: growth factor
induction of CAMP expression (CAMP [5]; [11]): only 1,25(OH)2D3 induced CAMP expression significantly

IL-1β: proinflammatory cytokine
induction of CAMP expression (CAMP [9]): induced CAMP expression

IL-6: cytokine
induction of CAMP expression (CAMP [5]; [11]): only 1,25(OH)2D3 induced CAMP expression significantly | induction of CAMP expression (CAMP [9]): did not | induction of hCAP18 expression (hCAP18): not by pro-inflammatory mediators

IL-8: cytokine
induction of CAMP expression (CAMP [9]): did not

INFγ: inflammatory factor
induction of CAMP expression (CAMP [5]; [11]): only 1,25(OH)2D3 induced CAMP expression significantly | induction of CAMP expression (CAMP [9]): did not | induction of hCAP18 expression (hCAP18): not by pro-inflammatory mediators

TNFα
induction of CAMP expression (CAMP [5]; [11]): only 1,25(OH)2D3 induced CAMP expression significantly | induction of CAMP expression (CAMP [9]): did not | induction of hCAP18 expression (hCAP18): not by pro-inflammatory mediators

insulin-like growth factor (IGF)-1: growth factor that is important in wound healing
induction of CAMP mRNA and protein (CAMP [10]): induce both the CAMP mRNA and protein

B1: IL-10: cytokine (protein, UniProt P22301 19-178, looked up)
Interleukin-10: SPGQGTQSENSCTHFPGNLPNMLRDLRDAFSRVKTFFQMKDQLDNLLLKESLLEDFKGYLGCQALSEMIQFYLEEVMPQAENQDPDIKAHVNSLGENLKTLRLRLRRCHRFLPCENKSKAVEQVKNAFNKLQEKGIYKAMSEFDIFINYIEAYMTMKIRN
induction of CAMP expression (CAMP [9]): did not

B2: I1-4: cytokine, probably IL-4 (protein, UniProt P05112 25-153, looked up)
Interleukin-4: HKCDITLQEIIKTLNSLTEQKTLCTELTVTDIFAASKNTTEKETFCRAATVLRQFYSHHEKDTRCLGATAQQFHRHKQLIRFLKRLDRNLWGLAGLNSCPVKEANQSTLENFLERLKTIMREKYSKCSS
induction of CAMP expression (CAMP [9]): did not

B3: G-CSF: growth factor (protein, UniProt P09919 31-207, looked up)
Granulocyte …: TPLGPASSLPQSFLLKCLEQVRKIQGDGAALQEKLVSECATYKLCHPEELVLLGHSLGIPWAPLSSCPSQALQLAGCLSQLHSGLFLYQGLLQALEGISPELGPTLDTLQLDVADFATTIWQQMEELGMAPALQPTQGAMPAFASAFQRRAGGVLVASHLQSFLEVSYRVLRHLAQP
induction of CAMP expression (CAMP [5]; [11]): only 1,25(OH)2D3 induced CAMP expression significantly

B4: IL-1α: pro-inflammatory mediator (protein, UniProt P01583 113-271, looked up)
Interleukin-1 alpha: SAPFSFLSNVKYNFMRIIKYEFILNDALNQSIIRANDQYLTAAALHNLDEAVKFDMGAYKSSKDDAKITVILRISKTQLYVTAQDEDQPVLLKEMPEIPKTITGSETNLLFFWETHGTKNYFTSVAHPNLFIATKQDYWVCLAGGPPSITDFQILENQA
induction of hCAP18 expression (hCAP18): not by pro-inflammatory mediators
